Data on one molecule can be found in article PMC6225423, “Synthesis, Structural and Thermal Studies of 3-(1-Benzyl-1,2,3,6-tetrahydropyridin-4-yl)-5-ethoxy-1H-indole (D2AAK1_3) as Dopamine D2 Receptor Ligand” (Molecules : A Journal of Synthetic Chemistry and Natural …, 2018).

The target of this test is T1, human dopamine D2 receptor (Homo sapiens, UniProt P14416).
T1 construct: gene DRD2; cloned human D2S receptor
Description: [3H]spiperone competition radioligand binding, membranes of CHO-K1 cells stably expressing human D2S.

T1 sequence (P14416 1-414 isoform P14416-2): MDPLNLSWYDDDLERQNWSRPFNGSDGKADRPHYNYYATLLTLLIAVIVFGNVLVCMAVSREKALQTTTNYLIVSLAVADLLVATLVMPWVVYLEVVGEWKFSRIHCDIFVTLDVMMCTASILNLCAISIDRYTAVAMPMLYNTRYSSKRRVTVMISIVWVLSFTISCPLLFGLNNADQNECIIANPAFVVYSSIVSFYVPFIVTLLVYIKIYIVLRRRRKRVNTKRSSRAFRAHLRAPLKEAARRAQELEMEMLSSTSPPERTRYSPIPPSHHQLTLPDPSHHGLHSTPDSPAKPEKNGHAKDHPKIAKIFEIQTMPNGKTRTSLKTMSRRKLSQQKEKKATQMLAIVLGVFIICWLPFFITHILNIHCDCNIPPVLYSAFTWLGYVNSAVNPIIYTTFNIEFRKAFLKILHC

On to `CCOc1ccc2[nH]cc(C3=CCN(Cc4ccccc4)CC3)c2c1` [D2AAK1_3, 3-(1-Benzyl-1,2,3,6-tetrahydropyridin-4-yl)-5-ethoxy-1H-indole], for which the Ki (usually the dissociation constant of the complex between target and ligand, obtained from inhibition or displacement) is 151 nM.
